# Test results taken from PubChem BioAssay AID1996.
# Conditions: buffer; pH 7.4; 200.0 µM
row,SMILES,solubility kinetic [µg/mL]
1,COc1ccc(/C=C/C(=O)NCCCN2CCOCC2)cc1,43.8
2,CCOC1(/N=C(\C)NS(=O)(=O)c2ccc(Cl)cc2)C(C)=CC(=O)C=C1C,> 59.5
3,FC(F)(F)c1ccc(CSc2ccccn2)cc1,1.2
4,COc1ccc(CCN(C)C/C=C/c2ccccc2)cc1OC,30.1
5,COc1ccc(NC(=S)Nc2ccccc2)cc1,> 38.8
6,Cc1ccc(OCc2cnc(Cl)s2)c(C)c1,< 0.5
7,CC(=O)Nc1ccc(C(=O)O)cc1,> 26.9
8,CCOC(=O)c1c(O)cc(C)cc1Nc1ccccc1,< 0.6
9,O=C(Nc1ccc2c(c1)CCC2)c1cc(F)cc(F)c1,3.7
10,Cc1cccc(NS(=O)(=O)c2cc(Cl)ccc2Cl)n1,> 47.6
11,O=C(CSc1ncnc2ccccc12)c1ccco1,> 40.5
12,O=C1NN(c2ccc(F)cc2)C(=O)/C1=C/c1cccs1,> 43.2
13,O=C(CNC(=O)c1ccc(Cl)cc1)NCc1ccccn1,> 45.6
14,CN(CC(=O)Nc1ccc(F)cc1)CC(=O)N1CCCCC1,> 46.1
15,CCOC(=O)/C(=C/c1cn(C)c2ccccc12)NC(=O)c1ccccc1,3.2
16,O=[N+]([O-])c1ccc(C[n+]2cccc3ccccc32)cc1.[Cl-],41
17,S=C(NCc1cccs1)Nc1cc(Cl)cc(Cl)c1,0.7
18,O=C(COC(=O)c1ccc([N+](=O)[O-])o1)Nc1ccc(Br)cc1F,21
19,O=C(/C=C/c1cccc(F)c1)OCC(=O)N1CCCC1,> 41.6
20,NC(=O)CSc1nccn1Cc1ccccc1,> 37.1
21,COc1ccccc1CC(=O)Nc1cccc(C)n1,> 38.4
22,Cn1c(=O)oc2cc(S(=O)(=O)Nc3ccc(Cl)cc3)ccc21,4.1
23,CN(C)CCCNc1nc(N)c([N+](=O)[O-])c(NC2CCCCC2)n1,> 50.6
24,Cc1ccc(OCC(=O)NCCc2c[nH]c3ccccc23)cc1,4.9
25,Cc1ccc(NC(=O)CNC(=O)c2cccs2)nc1,> 41.3

row,SMILES,solubility kinetic [µg/mL]
1,O=C(Nc1ccc(Cl)cc1)c1ccc2ncsc2c1,3.1
2,Cc1ccc2ncnc(Oc3ncccc3[N+](=O)[O-])c2c1,34.7
3,O=[N+]([O-])c1ccc(Cc2cncc(O)c2)cc1,34.1
4,Cc1ccc(NC(=S)NC(=O)C2CCCC2)c(Br)c1,4.2
5,CC(OC(=O)/C=C/c1ccccc1)C(=O)NC1CCCCC1C (stereo unspecified),8.4
6,CCOc1ccccc1C(=O)Nc1cccc2cccnc12,< 0.3
7,COc1ccc(S(=O)(=O)N2CCOCC2)cc1NC(=O)CSc1nc(C)c(C)c(C)n1,8.5
8,COc1ccc(NC(=O)CN2C(=O)COc3ccccc32)cc1OC,3
9,CCCc1c(C)[nH]c2ccc(C(=O)O)cc2c1=S,> 39.2
10,Cc1c(-c2csc(N)n2)c2ccccc2n1C,30.4
11,CNC(=O)Nc1ccc(C(O)(C(=O)OC)C(F)(F)F)cc1 (stereo unspecified),> 45.9
12,CCc1cc(SC#N)cc(C)c1N,25.6
13,Cl.OCCNCc1cccc(Br)c1,> 40
14,COc1cccc(OC)c1OCCNCC1COc2ccccc2O1.Cl (stereo unspecified),> 57.3
15,O=C(O)c1cccc2c1/C(=N/O)c1ccccc1-2,> 35.9
16,O=C(CCN1CCN(c2ccccc2)CC1)Nc1ccccc1,40.9
17,CC(C)(CNC(=O)CCC1CCCC1)CNC(=O)CCC1CCCC1,27.1
18,Cc1ccc(C(=O)NCC(=O)NC2CCC(C)CC2)s1 (stereo unspecified),7.6
19,S=c1nc(-c2ccccc2)[nH]c2ccc(Br)cc12,< 0.3
20,O=C(O)CCSc1ncnc2sc(-c3ccccc3)cc12,> 47.5
21,CN1C(=O)c2ccc(C(=O)NCc3ccco3)cc2C1=O,> 42.6
22,CC(=O)N1c2ccccc2C(=O)C1N(C)c1ccc(C)cc1 (stereo unspecified),16.9
23,Cc1cc(NS(=O)(=O)c2cccc([N+](=O)[O-])c2)no1,32.5
24,O=[N+]([O-])c1cc(F)c(N2CCCCC2)cc1Br,0.3
25,CC(NC(=O)NC(=O)c1ccc(Cl)cc1Cl)C1CC1 (stereo unspecified),7.2

row,SMILES,solubility kinetic [µg/mL]
1,COc1ccc(S(=O)(=O)N2CCCCC2)cc1NC(=O)c1[nH]c(C)c(C(C)=O)c1C,3.2
2,Cc1ccc2[nH]cc(CCNC(=O)C3CCCO3)c2c1 (stereo unspecified),> 40.9
3,CC1CCN(C(=S)NC(=O)c2cccc([N+](=O)[O-])c2)CC1,34.2
4,COc1ccccc1NS(=O)(=O)c1cc(NC(=O)C2CCCO2)ccc1C (stereo unspecified),> 58.6
5,Cc1ccc2c(C(=O)CN3CCC(C(N)=O)CC3)c(C)[nH]c2c1,> 47
6,NC(=O)c1c(NC(=O)c2ccccc2)sc2c1CCCC2,0.8
7,CC1(C)CC(=O)N(c2ccc(Cl)c(Cl)c2)C(=O)C1,9.6
8,COc1ccc(OCCC(=O)OCC(=O)c2ccc[nH]2)cc1,> 45.5
9,CCc1nc2ccccc2c(C(=O)Nc2cccc(C)c2)c1C,2.2
10,CC(Oc1ccccc1Cl)C(=O)N1CCCN(C)CC1 (stereo unspecified),> 44.5
11,Cc1[nH]c2ccccc2c1C(=O)CSc1ccccn1,1.4
12,C[C@H](NC(=O)c1ccco1)C(=O)NCc1cccs1,> 41.7
13,COc1cccc(C(=O)Nc2cc(C)on2)c1OC,34
14,Cc1csc(SCC(=O)NC(=O)NCCC(C)C)n1,22.6
15,O=S(=O)(CCN1CCOCC1)c1ccccc1,> 38.3
16,CC(Cc1ccccc1)NC(=O)c1cc([N+](=O)[O-])ccc1Cl (stereo unspecified),10
17,CCCCOc1ccc(C(=O)N2CCN(c3ncccn3)CC2)cc1,12.2
18,Cc1ccc(NC(=O)CCn2c(=S)oc3ccccc32)cc1F,< 0.4
19,Cc1c(C)n(CCCN(C)C)c2ncnc(Nc3ccc(F)cc3)c12,48.7
20,COC(=O)c1csc(S(=O)(=O)N2CCCCC2)c1OC,> 47.9
21,COC(=O)c1ccc(Cl)c(NC(=O)c2cccc([N+](=O)[O-])c2C)c1,0.7
22,COc1nc(-c2cccc([N+](=O)[O-])c2)nc2ccccc12,< 0.2
23,Cc1ccc(-c2[nH]c3ccccc3c2SCCN)cc1,> 42.4
24,O=c1c2sc3ccccc3c2[nH]c(=S)n1CCN1CCOCC1,49.9
25,O=C(NC1CCSc2ccccc21)c1ccc([N+](=O)[O-])cc1 (stereo unspecified),3.5

row,SMILES,solubility kinetic [µg/mL]
1,Cc1ccc(S(=O)(=O)CCN2C=CC(C(F)(F)F)=NCC2)cc1,51.4
2,CCOc1ccc(NS(=O)(=O)c2cc(NC(=O)C3CC3)ccc2C)cc1Br,3
3,CC(C(=O)Nc1cccc(C#N)c1)N(C)CCOc1ccccc1 (stereo unspecified),31.8
4,CCOc1nc(CC(C)C)c2c(c1C#N)CC(C)(C)OC2,2.4
5,Cc1ccc(C)c(N2CCN(C3CCCC(C)C3)CC2)c1 (stereo unspecified),23.3
6,CC(=O)c1sc(Nc2nc3cc4c(cc3s2)OCO4)nc1C,0.6
7,COc1ccc(CN(C)CC(=O)NC(C)c2ccccc2)c(OC)c1 (stereo unspecified),51.2
8,N/C(Cc1nc2ccccc2s1)=N\O,29.3
9,Cc1cccc(C)c1NC(=O)c1ccc2c(c1)CCN2S(C)(=O)=O,8.3
10,CC1=NN(C(=O)CCc2ccccc2)C(O)(c2ccncc2)C1 (stereo unspecified),> 46.4
11,[Br-].c1ccc(-c2c[n+]3c(n2-c2ccccc2)SCC3)cc1,> 53.9
12,CC(=O)Nc1ccc(NC(=O)COC(=O)C2CCC(C(C)(C)C)CC2)cc1 (stereo unspecified),3.7
13,Cc1ccc(CC2C(=O)N(c3nc(C)cc(C)n3)C(=O)C2C)cc1 (stereo unspecified),> 48.5
14,Cc1ccc(OCCCCCCN2CCNCC2)cc1.O=C(O)C(=O)O,> 55
15,O=C(NC1CCCCCCC1)c1cc(-c2ccccn2)nc2ccccc12,< 0.3
16,Cl.Fc1c(F)c(F)c(N2CCNCC2)c(F)c1F,> 43.3
17,O=C1NC2(CCCCC2)C(=O)N1CCN1C(=O)c2ccccc2C1=O,40.1
18,COc1ccccc1N1CCN(CC(=O)Nc2nccs2)CC1,> 49.9
19,Cc1nnc(SCC(=O)Nc2cccc(N)c2)n1-c1ccccc1,> 50.9
20,COC(=O)[C@H](CCSC)NC(=O)NC1CC1,> 36.9
21,COc1ccc(C(=O)n2cnc3ccccc32)cc1,> 37.8
22,CCCC(=O)NNC(=O)CCC(=O)Nc1ccccc1Cl,> 46.8
23,Cc1ccc(S(=O)(=O)Nc2ccc(S(=O)(=O)Nc3nccs3)cc2)cc1C,> 63.5
24,CCCOC(=O)Nc1sc2c(c1C(N)=O)CCCC2,1.3
25,Cl.NCC12CC3CC(C1)CC(c1ccc(Cl)cc1)(C3)C2,> 46.8

row,SMILES,solubility kinetic [µg/mL]
1,Nc1ncc(-c2ccccc2)c(-c2ccc(OCc3ccccc3)cc2O)n1,0.4
2,CC(C)(C)NCC(O)CON=C1c2ccccc2-c2ccccc21 (stereo unspecified),44.1
3,O=C(Nc1cccc(O)c1)C1CC(c2cccc(Br)c2)=NO1 (stereo unspecified),28
4,CCOc1cc(S(=O)(=O)NCc2cccnc2)c(C)cc1C,> 48.1
5,CCOc1ccc(N(C)S(=O)(=O)c2cnc[nH]2)cc1,> 42.2
6,CC(C)(C)c1ccc(C(=S)N2CCN(c3ccccc3)CC2)cc1,< 0.4
7,CNC(=O)Cn1ncc2c3ccccc3n(C)c2c1=O,> 40.5
8,Cc1ccccc1N1C(=O)c2cccc([N+](=O)[O-])c2C1=O,> 42.3
9,CCOc1ccc(N/C=C/C(=O)c2ccccc2)cc1,0.8
10,Cc1nccn1CC(O)COc1ccc([N+](=O)[O-])cc1 (stereo unspecified),> 41.6
11,O=C(/C=C/c1ccccc1[N+](=O)[O-])N1CCc2ccccc2C1,20.3
12,S=C(NC1CCCCC1)NC1CC2C=CC1C2 (stereo unspecified),19.5
13,CCN1CCN(c2nc3ccccn3c(=O)c2C=O)CC1,> 42.9
14,Cc1nc(Cl)c(N=Cc2cccc([N+](=O)[O-])c2)c(Cl)n1,> 46.7
15,COc1ccc2[nH]c(=O)c(CNc3ccc(C)cc3C)cc2c1,41.5
16,CC(C)(C)C(=O)O/N=C(\N)c1c(Cl)cccc1Cl,30.9
17,COc1ccc2oc(=O)c(C(=O)NCc3ccc(F)cc3)cc2c1,0.8
18,CCC1Oc2ccc(C)cc2N(CC(=O)NCc2cccs2)C1=O (stereo unspecified),5.2
19,CCn1c(CN(C)c2ccccc2)nc2ccccc21,> 39.8
20,Cc1ccc(C2=NCC(=O)Nc3ccc(Br)cc32)cc1,42.1
21,O=C(O)c1ccccc1Nc1ccnc(C(F)(F)F)c1,> 42.3
